Our source for the change in vivo values is patent US7645779B2, “Linked biaryl compounds” (Amgen Inc., priority 2001, dated 2010).

For the test, the system named is High Cholesterol Fed Rats. The test is described as follows: HDL Cholesterol Assay in High Cholesterol Fed Rats. The class given is in vivo, Male Sprague-Dawley rats. The following applies: Rattus norvegicus, 168 h, oral once a day over the final 7 days of a 14-day high cholesterol diet, HDL increase relative to the vehicle, read-out: Serum HDL cholesterol levels (% of increase) at 30 mg/kg. As to the method: HDL Cholesterol Assay in High Cholesterol Fed Rats
Male Sprague-Dawley rats (BW: 100-120 g) were fed a high cholesterol diet (1.25% cholesterol, 0.5% cholic acid and 10% coconut oil) for 14 days. The animals were orally dosed with test compounds suspended to 0.5% methylcellulose solution once a day over the final 7 days. Typical doses of test compounds were 1-30 mg/kg/day.
After 7 days of treatment, serum HDL cholesterol concentration was determined from blood obtained by tail bleeds. HDL cholesterol determination was performed on a Hitachi 7170 automatic analyzer.
Serum HDL cholesterol level (% of increase) refers to the rate of HDL increase relative to the vehicle and was calculated as follows: […]

`Cc1cc(S(=O)(=O)c2ccc(OCc3ccc(C(F)(F)F)cc3)cc2C)ccc1OCC(=O)O` [Compound 5, 4-[[2-methyl-4-(4-trifluoromethyl-benzyloxy)phenyl]sulfonyl]-2-methylphenoxy-acetic acid]: the change in vivo at 30 mg/kg is at most 100%.

For the molecule `Cc1cc(Sc2ccc(OCc3ccc(C(F)(F)F)cc3)cc2)ccc1OCC(=O)O` [Compound 8], the change in vivo at 30 mg/kg is above 100%. Turning to `O=C(O)COc1ccc(Sc2ccc(CNc3ccc(C(F)(F)F)cc3)cc2Cl)c2c1CCCC2` [Compound 22, (4-{2-chloro-4-[(4-trifluoromethyl-phenylamino)-methyl]-phenylsulfanyl}-5,6,7,8-tetrahydro-naphthalen-1-yloxy)-acetic acid], the change in vivo at 30 mg/kg was at most 100%. As for `Cc1cc(Sc2ccc(COc3ccc(C(F)(F)F)cc3)cc2Cl)ccc1OCC(=O)O` [Compound 10, 4-[[2-chloro-4-[(4-trifluoromethylphenoxy)methyl]phenyl]sulfanyl]-2-methylphenoxy-acetic acid], the change in vivo at 30 mg/kg is at most 100%. To `Cc1cc(Sc2ccc(CNc3ccc(C(F)(F)F)cc3)cc2C)c(C)cc1OCC(=O)O` [Compound 21, 2,5-dimethyl-4-[[2-methyl-4-[(4-trifluoromethyl-phenylamino)methyl]phenyl]sulfanyl]phenoxy-acetic acid] belongs above 100%. To `Cc1cc(Sc2ccc(COc3ccc(C(F)(F)F)cc3)cc2)ccc1OCC(=O)O` [Compound 7, 4-[[4-[(4-trifluoromethylphenoxy)methyl]phenyl]sulfanyl]-2-methylphenoxy-acetic acid] belongs at most 100%; to `Cc1cc(COc2ccc(C(F)(F)F)cc2)ccc1Sc1ccc(OCC(=O)O)cc1C` [Compound 11], above 100%. To `CCCc1cc(Sc2ccc(OCc3ccc(C(F)(F)F)cc3)c(C)c2)ccc1OCC(=O)O` [Compound 4, 4-[[3-methyl-4-(4-trifluoromethyl-benzyloxy)phenyl]sulfanyl]-2-propylphenoxy-acetic acid] belongs above 100%.

Regarding `Cc1cc(Sc2ccc(OCc3ccc(C(F)(F)F)cc3)c(C)c2)ccc1OCC(=O)O` [Compound 1, {2-methyl-4-[3-methyl-4-(4-trifluoromethyl-benzyloxy)-phenylsulfanyl]-phenoxy}-acetic acid], the change in vivo at 30 mg/kg is above 100%. To `Cc1cc(Sc2ccc(OCC(=O)O)c3ccccc23)ccc1OCc1ccc(C(F)(F)F)cc1` [Compound 9] belongs at most 100%.
